Assay results published in patent US6177437A, “Inhibitors of Herpes Simplex virus uracil-DNA glycosylase” (University of Massachusetts Medical Center, priority 1999, dated 2001).
pIC50: −log10 of the molar value. Read-outs that look alike come from different tables or passages of the source. Values belong to the compound of their own block, whether it stands above or below them.

Key:
[1] = target: T1, HSV1 uracil-DNA glycosylase (HSV1 UDG) (Human herpesvirus 1, UniProt P10186); assay: Inhibition of HSV1 uracil-DNA glycosylase, [3H]uracil release from [3H]dUMP-containing DNA; format: biochemical; conditions: for Activity against viral UDG: at 200 μM; for Potency against HSV1 UDG relative to parent compound: hexAU derivatives vs 4, octAU derivatives vs 5
T1 construct: made in house
Method: (§1) Compounds 2-8 were screened against purified HSV1 and human (HeLa) uracil-DNA glycosylases which were isolated by conventional enzyme purification protocols^1. Assays for inhibition by the compounds were conducted as described in the literature^1 by measuring [^3 H]uracil release from [^3 H]dUMP-containing DNA, in the presence of varying concentrations of test compounds. Control assays contained the same concentration of diluent, dimethylsulfoxide. IC50 s (the concentration of compound that causes half-maximal inhibition of [^3 H]uracil release from [^3 H]dUMP-containing DNA) for each of the compounds were calculated.
(§2) a. Isolation and assay of uracil-DNA glycosylases. The viral and human (HeLa) uracil-DNA glycosylases are isolated with conventional enzyme purification protocols (Focher et al., 1993). Both long and short forms of the HSV1 enzyme have been cloned and expressed in E. Coli (Argnani et al., 1995), and have essentially identical enzymatic properties and inhibitor sensitivities. Assays for new inhibitors of viral and human UDG are done as described (Focher et al., 1993) by measuring [^3 H]uracil release from [^3 H]dUMP-DNA. Mechanism studies involve classical variable substrate assays to determine if inhibition is competitive with substrate or product.

[2] = target: T2, human (HeLa) uracil-DNA glycosylase (Homo sapiens, UniProt P13051); conditions: cited from earlier work; for pIC50: compounds 4 and 5, from Focher et al., 1993, read-out: IC50 Human-UDG
T2 construct: The viral and human (HeLa) uracil-DNA glycosylases are isolated with conventional enzyme purification protocols; endogenous in cells; host or cells: HeLa

[3] = target: T1, HSV1 uracil-DNA glycosylase (HSV1 UDG); conditions: cited from earlier work
[4] = Solubility observations (assay medium, water); format: physicochemical
[5] = target: T2, human (HeLa) uracil-DNA glycosylase; assay: Inhibition of human (HeLa) uracil-DNA glycosylase, [3H]uracil release from [3H]dUMP-containing DNA; format: biochemical; conditions: Table 3; read-out: IC50 Human-UDG
Method: as §1, §2

[6] = Table 1, from literature (footnote a), read-out: IC50
[7] = compounds 4 and 5, from Focher et al., 1993, read-out: IC50 HSV1-UDG
[8] = Table 2, read-out: IC50, experimental value
[9] = Table 3, read-out: IC50 HSV1-UDG

T1 sequence (P10186 whole entry): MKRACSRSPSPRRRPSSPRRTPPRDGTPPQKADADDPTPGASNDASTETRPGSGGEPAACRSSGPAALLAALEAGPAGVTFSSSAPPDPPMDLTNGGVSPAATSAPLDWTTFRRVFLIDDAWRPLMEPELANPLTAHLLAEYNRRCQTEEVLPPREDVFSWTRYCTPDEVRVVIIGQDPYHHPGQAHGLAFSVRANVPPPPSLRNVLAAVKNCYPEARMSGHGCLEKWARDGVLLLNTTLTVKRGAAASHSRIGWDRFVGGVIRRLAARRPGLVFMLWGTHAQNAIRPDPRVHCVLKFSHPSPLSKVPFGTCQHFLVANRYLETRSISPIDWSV
T2 sequence (P13051 whole entry): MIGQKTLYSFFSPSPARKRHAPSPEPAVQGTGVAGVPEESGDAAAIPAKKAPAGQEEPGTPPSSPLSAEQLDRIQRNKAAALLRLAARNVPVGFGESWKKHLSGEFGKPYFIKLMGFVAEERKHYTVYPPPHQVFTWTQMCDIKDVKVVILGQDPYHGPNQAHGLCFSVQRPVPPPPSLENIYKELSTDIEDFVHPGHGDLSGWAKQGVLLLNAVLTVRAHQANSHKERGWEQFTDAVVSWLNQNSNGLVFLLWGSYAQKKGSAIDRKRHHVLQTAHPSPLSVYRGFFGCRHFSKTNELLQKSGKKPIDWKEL

Activity against viral UDG [1]: inactive
SMILES: CCCCCCc1ccc(Nc2cc(=O)n(CC)c(=O)[nH]2)cc1 [3-ethyl-6-(4-n-hexylanilino)uracil]

Water solubility [4]: poor water solubility | Mode of inhibition of HSV1 UDG [1]: competitive with DNA
SMILES: CCCCCCCCc1ccc(Nc2cc(=O)[nH]c(=O)[nH]2)cc1 [Compound 5, 6-(4-n-octylanilino)uracil]
pIC50 [3, 6]: 5.10 | pIC50 [3, 7]: 5.10 | pIC50 [2]: < 3.52

pIC50 [5]: < 3.70
SMILES: CCCCCCc1ccc(Nc2cc(=O)[nH]c(=O)n2C)cc1 [Compound 16, 1-Methyl-6-(4-hexylanilino)uracil]

pIC50 [5]: < 3.70
SMILES: CCCCCCc1ccc(Nc2cc(=O)[nH]c(=O)n2CC)cc1 [Compound 17, 1-Ethyl-6-(4-hexylanilino)uracil]

pIC50 [5]: < 3.70
SMILES: CCCCCCc1ccc(Nc2cc(=O)[nH]c(=O)n2CCC)cc1 [Compound 18, 1-Propyl-6-(4-hexylanilino)uracil]

pIC50 [1, 9]: < 4.00
SMILES: CCCCCCc1ccc(Nc2cc(=O)[nH]c(=O)n2CCOC)cc1 [Compound 19, 1-(2-Methoxyethyl)-6-(4-hexylanilino)uracil]

pIC50 [1, 9]: < 4.00
SMILES: CCCCCCc1ccc(Nc2cc(=O)[nH]c(=O)n2CCCOC)cc1 [Compound 20, 1-(3-Methoxypropyl)-6-(4-hexylanilino)uracil]

pIC50 [1, 9]: 4.70 | Potency against HSV1 UDG relative to parent compound [1]: equipotent with 4
SMILES: CCCCCCc1ccc(Nc2cc(=O)[nH]c(=O)n2CCO)cc1 [Compound 21, 1-(2-Hydroxyethyl)-6-(4-hexylanilino)uracil]

Potency against HSV1 UDG, fold weaker than 4 [1]: 3 fold | pIC50 ([1]; read-out: IC50 HSV1-UDG): 4.05
SMILES: CCCCCCc1ccc(Nc2cc(=O)[nH]c(=O)n2CCCO)cc1 [Compound 22, 1-(3-Hydroxypropyl)-6-(4-hexylanilino)uracil]

pIC50 [1, 9]: 4.82 | Potency against HSV1 UDG relative to parent compound [1]: nearly as potent
SMILES: CCCCCCCCc1ccc(Nc2cc(=O)[nH]c(=O)n2CCOC)cc1 [Compound 24, 1-(2-Methoxyethyl)-6-(4-octylanilino)uracil]

pIC50 [1, 9]: 5.00 | Potency against HSV1 UDG relative to parent compound [1]: as a potent an inhibitor as 5
SMILES: CCCCCCCCc1ccc(Nc2cc(=O)[nH]c(=O)n2CCO)cc1 [Compound 25, 1-(2-Hydroxyethyl)-6-(4-octylanilino)uracil]

More lines, now with the values behind:

SMILES: Nc1cc(=O)[nH]c(=O)[nH]1 [6-Aminouracil, reference compound]
pIC50 ([1]; text b184, read-out: IC50 HSV1 UDG): 3.00 | Inhibition of human UDG ([2]; reported (Caradonna et al, 1981)): inhibit weakly

SMILES: CCCCCCc1ccc(Nc2[nH]c(=O)[nH]c(=O)c2C)cc1 [(4-n-hexylanilino)thymine, 6-(4-Hexylanilino)thymine]
Activity against viral UDG [1]: inactive

SMILES: CCc1ccc(Nc2cc(O)nc(O)n2)cc1 [Compound 2]
pIC50 [3, 6]: 3.30

SMILES: CCCCCCc1ccc(Nc2cc(O)nc(O)n2)cc1 [Compound 4, 6-(4-n-Hexylanilino)uracil]
pIC50 [3, 6]: 4.52 | pIC50 [3, 7]: 4.52 | pIC50 [2]: < 3.52

SMILES: CCCCCCCCCCc1ccc(Nc2cc(O)nc(O)n2)cc1 [Compound 6, 6-(4-Decylanilino)uracil]
pIC50 [1, 8]: 4.46 | pIC50 [5]: < 3.70

SMILES: CCCCCCOc1ccc(Nc2cc(O)nc(O)n2)cc1 [Compound 7, 6-(4-Hexyloxyanilino)uracil]
pIC50 [1, 8]: 4.52

SMILES: CCCCCCCCOc1ccc(Nc2cc(O)nc(O)n2)cc1 [Compound 8, 6-(4-Octyloxyanilino)uracil]
pIC50 [1, 8]: 4.60

SMILES: CCCCCCCCc1ccc(Oc2cc(=O)[nH]c(=O)[nH]2)cc1 [Compound 9, 6-(4-Octylphenoxy)uracil]
pIC50 ([1]; read-out: IC50, experimental value): 3.82 | pIC50 [5]: < 3.52

SMILES: O=c1cc[nH]c(=O)[nH]1 [uracil]
Mode of inhibition of human UDG ([2]; reported (Griffiths 1995)): non-competitive
